Measurements as given in patent publication US7582655B2, “Antineoplastic compounds” (University of Saskatchewan, priority 2005, dated 2009).
Like-named read-outs stand apart in the source and are kept apart here.

Tests used:
[1] = system: human promyelocytic leukemia HL-60; experiment: Cytotoxicity CC50, trypan blue exclusion, HL-60
Method: (§1) In addition, the compounds were evaluated against human squamous cell carcinomas (HSC-2 and HSC-4) and human promyelocytic leukemia neoplasms (HL-60) and compared with normal cells, i.e. human gingival fibroblasts (HGF), human pulp cells (HPC) and human periodontal ligament fibroblasts (HPLF).
(§2) MTT stands for 3-(4,5-dimethylthiazol-2-yl)-2,5-diphenyltetrazolium bromide). The cells were incubated with varying concentrations of the compounds along with untreated cells for 24 h and the absorbance at 540 nm measured. In the case of the HL-60 assay, the trypan blue exclusion method was followed and cell viability was determined using a haemocytometer. The CC50 values were obtained from dose-response curves (Sakagami, H.; Satoh, K.; Ohata, H.; Takahashi, H.; Yoshida, H.; Iida, M.; Kuribayashi, N.; Sakagami, T.; Momose, K.; Takeda, M. Anticancer Res. 1996, 16, 2635-2644). The general methods used in culturing the cells employed in these cytotoxicity experiments have been described previously (Kawase, M.; Sakagami, H.; Motohashi, N.; Hauer, H.; Chatterjee, S. S.; Spengler, G.; Vigyikanne, A. V.; Molnár, A.; Molnár, J. In Vivo 2005, 19, 705-712; and Takeuchi, R.; Hoshijima, H.; Onuki, N.; Nagasaka, H.; Chowdhury, S. A.; Kawase, M.; Sakagami, H. Anticancer Res. 2005, 25, 4037-4042). In brief, the malignant cells were obtained from Professor Nagumo, Showa University, Japan. The HGF, HPC and HPLF cells were prepared from human periodontal tissue after obtaining informed consent according to the guidelines of Meikai University Ethics Committee, Japan (No. 0206). Since normal cells have a short lifespan, cells at the 3-7 population doubling time were used. With the exception of the HL-60 neoplasm, the cells were cultured in DMEM containing heat-inactivated FBS (10%) at 37° C. in a humidified carbon dioxide atmosphere and subcultured by trypsinization. The HL-60 cells were cultured in a similar fashion except that RPMI 1640 media was employed.

HCT 116 = experiment: Human tumour cell line panel, colon cancer HCT 116; type: cell-based; details: 48 h; read-out: Colon cancer cells, IC50(μM) HCT 116
Method: (§3) In addition, both 5-fluorouracil and melphalan were evaluated towards 57 cell lines. […] MG MID is the average of the potencies of the compound to approximately 50 neoplastic cell lines.

[2] = system: human squamous cell carcinomas HSC-2; experiment: Cytotoxicity CC50, MTT assay, HSC-2
Method: as §1, §2

KM 12 = experiment: Human tumour cell line panel, colon cancer KM 12; type: cell-based; details: read-out: Colon cancer cells, IC50(μM) KM 12
Method: as §3

K 562 = experiment: Human tumour cell line panel, leukemic K 562; type: cell-based; details: 48 h; read-out: Leukemic cells, IC50(μM) K 562
Method: as §3

[3] = system: HSC-2, HSC-4 and HL-60 malignant cells; experiment: Average CC50 for malignant cells
Method: as §1, §2

COLO 205 = experiment: Human tumour cell line panel, colon cancer COLO 205; type: cell-based; details: 48 h; read-out: Colon cancer cells, IC50(μM) COLO 205
Method: as §3

human tumour cell lines = experiment: Panel of human tumour cell lines, all cell lines (mean graph midpoint); type: cell-based; details: mean graph midpoint, average of 49 (38-59) human tumour cell lines, 48 h incubation; read-out: All cell lines IC50
Method: A number of compounds of the invention were further assessed against numerous human malignant cell lines. An average of 49 cell lines from nine different neoplastic diseases, namely leukemia, melanoma, non-small cell lung, colon, central nervous system, ovarian, renal, prostate, and breast cancers were employed.
as §3

[4] = system: human gingival fibroblasts (HGF); experiment: Cytotoxicity CC50, MTT assay, normal HGF cells
Method: as §1, §2

human pulp cells (HPC) = experiment: Cytotoxicity CC50, MTT assay, normal HPC cells
Method: as §1, §2

[5] = system: human periodontal ligament fibroblasts (HPLF); experiment: Cytotoxicity CC50, MTT assay, normal HPLF cells
Method: as §1, §2

HCT 15 = experiment: Human tumour cell line panel, colon cancer HCT 15; type: cell-based; details: 48 h; read-out: Colon cancer cells, IC50(μM) HCT 15
Method: as §3

SW 620 = experiment: Human tumour cell line panel, colon cancer SW 620; type: cell-based; details: 48 h; read-out: Colon cancer cells, IC50(μM) SW 620
Method: as §3

[6] = system: human squamous cell carcinomas HSC-4; experiment: Cytotoxicity CC50, MTT assay, HSC-4
Method: as §1, §2

RPMI 8226 = experiment: Human tumour cell line panel, leukemic RPMI 8226; type: cell-based; details: 48 h; read-out: Leukemic cells, IC50(μM) RPMI 8226
Method: as §3

HL 60 = experiment: Human tumour cell line panel, leukemic HL 60; type: cell-based; details: 48 h; read-out: Leukemic cells, IC50(μM) HL 60
Method: as §3

[7] = system: murine L-5178 lymphoma cells transfected with the human MDR1 gene; experiment: MDR reversal, rhodamine 123 fluorescence activity ratio; details: FAR >1 indicates MDR reversal; for FAR value 4 μg/ml: compound 4 μg/ml; for FAR value 40 μg/ml: compound 40 μg/ml
Method: A solution of the test compound (2 mg/ml, 10 μl) in dimethylsulfoxide was added to aliquots of the cell suspension and incubated at room temperature for 10 minutes. […] The cells were washed twice and resuspended in PBS (pH 7.4) after which the fluorescence was measured using a Beckton Dickinson FACScan instrument. The fluorescence of the cells was measured in treated MDR cells (F1), untreated MDR cells (F2), treated parental cells (F3) […] were obtained from the following equation, viz (F1/F2)/(F3/F4).

[8] = read-out: CC50(μM) HL-60, 24 h, trypan blue exclusion, average of two determinations
[9] = read-out: CC50(μM) HSC-2, 24 h, MTT, average of two determinations
[10] = average CC50 for HSC-2, HSC-4 and HL-60 malignant cells
[11] = read-out: CC50(μM) HGF, normal cells, 24 h, MTT
[12] = read-out: CC50(μM) HPC, normal cells, 24 h, MTT
[13] = read-out: CC50(μM) HPLF, normal cells, 24 h, MTT
[14] = read-out: CC50(μM) HSC-4, 24 h, MTT, average of two determinations

Row | Molecule | CC50 [1, 8] | CC50 [2, 9] | CC50(μM) ave [3, 10] | CC50 [4, 11] | CC50 (human pulp cells (HPC); [12]) | CC50 [5, 13] | CC50 [6, 14] | CC50 [1] | CC50 [2] | CC50(μM) ave [3] | CC50 [4] | CC50 (human pulp cells (HPC)) | CC50 [5] | FAR value 4 μg/ml [7] | FAR value 40 μg/ml [7] | CC50 [6] | also measured
1 | 1-[4-(2-Diethylaminoethoxy)phenylcarbonyl]-3,5-bis(phenylmethylene)-4-piperidone hydrochloride hemihydrate [Compound 4a] | 0.61 µM | 3.1 µM | 1.9 µM | 4.2 µM | 12 µM | 6 µM | 2 µM | – | – | – | – | – | – | – | – | – | IC50 (HCT 116): < 0.01 µM; IC50 (KM 12): 1.74 µM; IC50 (K 562): 0.043 µM; IC50 (COLO 205): 2.63 µM; IC50 (human tumour cell lines): < 1.38 µM; IC50 (HCT 15): 1.17 µM; IC50 (SW 620): 1.35 µM; IC50 (RPMI 8226): < 0.01 µM
2 | 1-[4-(2-Dimethylaminoethoxy)phenylcarbonyl]-3,5-bis(4-nitrophenylmethylene)-4-piperidone hydrochloride hemihydrate [Compound 3c] | 0.31 µM | 0.93 µM | – | 7 µM | 5.2 µM | 5.9 µM | 0.71 µM | – | – | – | – | – | – | – | – | – | –
3 | 1-[4-{2-(1-Piperidinyl)ethoxy}phenylcarbonyl]-3,5-bis(phenylmethylene)-4-piperidone hydrochloride hemihydrate [Compound 5a] | 1.4 µM | 3 µM | 2.3 µM | 4.6 µM | 12 µM | 7.4 µM | 2.5 µM | – | – | – | – | – | – | – | – | – | –
4 | 1-[4-{2-(4-Morpholinyl)ethoxy}phenylcarbonyl]-3,5-bis(4-nitrophenylmethylene)-4-piperidone hydrochloride hemihydrate [Compound 6c] | 0.35 µM | 0.76 µM | – | 12 µM | 8.2 µM | 9.3 µM | 0.74 µM | – | – | – | – | – | – | – | – | – | –
5 | 1-[4-{2-(4-Morpholinyl)ethoxy}phenylcarbonyl]-3,5-bis(phenylmethylene)-4-piperidone hydrochloride hemihydrate [Compound 6a] | 1.2 µM | 2.4 µM | 2.0 µM | 83 µM | 95 µM | 30 µM | 2.4 µM | – | – | – | – | – | – | – | – | – | IC50 (HL 60): 0.562 µM; IC50 (HCT 116): 0.339 µM; IC50 (KM 12): 0.129 µM; IC50 (K 562): 0.158 µM; IC50 (COLO 205): 22.9 µM; IC50 (human tumour cell lines): > 2.63 µM; IC50 (HCT 15): 1.45 µM; IC50 (SW 620): 0.191 µM; IC50 (RPMI 8226): 0.123 µM
6 | O=C1C(=Cc2ccc(Cl)cc2)CNCC1=Cc1ccc(Cl)cc1 [Compound 1b] | – | – | – | – | – | – | – | 22 µM | 18 µM | 20 µM | 69 µM | 130 µM | 56 µM | 1.25 | 0.91 | 20 µM | –
7 | Cl.Cl.O.O.O.O=C1C(=Cc2ccc([N+](=O)[O-])cc2)CN(C(=O)c2ccc(OCCN3CCCCC3)cc2)CC1=Cc1ccc([N+](=O)[O-])cc1.O=C1C(=Cc2ccc([N+](=O)[O-])cc2)CN(C(=O)c2ccc(OCCN3CCCCC3)cc2)CC1=Cc1ccc([N+](=O)[O-])cc1 [Compound 5c, 3,5-bis(4-Nitrophenylmethylene)-1-[4-{2-(1-piperidinyl)ethoxy}phenylcarbonyl]-4-piperidone hydrochloride 1.5 hydrate] | – | – | – | – | – | – | – | 0.29 µM | 0.86 µM | – | 8 µM | 3.9 µM | 4.9 µM | 145 | 51.5 | 0.9 µM | –
8 | Cc1ccc(C=C2CN(C(=O)c3ccc(OCCN4CCCCC4)cc3)CC(=Cc3ccc(C)cc3)C2=O)cc1.Cc1ccc(C=C2CN(C(=O)c3ccc(OCCN4CCCCC4)cc3)CC(=Cc3ccc(C)cc3)C2=O)cc1.Cl.Cl.O [Compound 5d, 3,5-bis(4-Methylphenylmethylene)-1-[4-{1-piperidinyl)ethoxy}phenylcarbonyl]-4-piperidone hydrochloride hemihydrate] | – | – | – | – | – | – | – | 2.3 µM | 2.9 µM | – | 6 µM | 15 µM | 5.5 µM | – | – | 4.1 µM | IC50 (HL 60): 0.933 µM; IC50 (HCT 116): 1.58 µM; IC50 (KM 12; 48 h): 0.148 µM; IC50 (K 562): 0.589 µM; IC50 (COLO 205): 6.92 µM; IC50 (human tumour cell lines): 1.38 µM; IC50 (HCT 15): 1.07 µM; IC50 (SW 620): 0.339 µM; IC50 (RPMI 8226): 0.123 µM
9 | Cc1ccc(C=C2CN(C(=O)c3ccc(OCCN4CCCCC4)cc3)CC(=Cc3ccc(C)cc3)C2=O)cc1.Cc1ccc(C=C2CN(C(=O)c3ccc(OCCN4CCCCC4)cc3)CC(=Cc3ccc(C)cc3)C2=O)cc1.Cl.Cl.O [Compound 5d] | – | – | – | – | – | – | – | – | – | 3.1 µM | – | – | – | 179 | 146 | – | –
10 | Cl.O=C1C(=Cc2ccc(Cl)cc2)CN(C(=O)c2ccc(OCCN3CCOCC3)cc2)CC1=Cc1ccc(Cl)cc1 [Compound 6b] | – | – | – | – | – | – | – | – | – | 42 µM | – | – | – | 76.0 | 6.88 | – | –
11 | CC[N+](C)(CC)CCOc1ccc(C(=O)N2CC(=Cc3ccc(Cl)cc3)C(=O)C(=Cc3ccc(Cl)cc3)C2)cc1.[I-] [Compound 7b, 3,5-bis(4-Chlorophenylmethylene)-1-[4-(2-diethylaminoethoxy)phenylcarbonyl]-4-piperidone methoiodide] | – | – | – | – | – | – | – | 64 µM | > 400 µM | – | > 400 µM | > 400 µM | 9.4 µM | 1.21 | 1.85 | 220 µM | CC50 [3]: ≥ 228 µM
12 | CC[N+](C)(CC)CCOc1ccc(C(=O)N2CC(=Cc3ccc([N+](=O)[O-])cc3)C(=O)C(=Cc3ccc([N+](=O)[O-])cc3)C2)cc1.[I-] [Compound 7c, 1-[4-(2-Diethylaminoethoxy)phenylcarbonyl]-3,5-bis(4-nitrophenylmethylene)-4-piperidone methoiodide] | – | – | – | – | – | – | – | 29 µM | 67 µM | 52 µM | 93 µM | 130 µM | 13 µM | 1.03 | 1.22 | 61 µM | –
13 | [4-(2-Dimethylaminoethoxy)phenylcarbonyl]-3,5-bis(phenylmethylene)-4-piperidone hydrochloride [Compound 3a] | – | 3.8 µM | 2.3 µM | – | – | – | 2.1 µM | 1 µM | – | – | – | – | 8.9 µM | 45.5 | 51.6 | – | –
